# Data as given in patent US20260049104A1, “PEPTIDES WITH ANTIMICROBIAL PROPERTIES” (priority 2022, published 2026).
# Where two headings read alike, the source gives them in different places. No end group written: not given here.
# Legend:
# [1] = test system: Enterobacter cloacae; conditions: for MIC value: Table 15, unit inferred
# Protocol: (§1) MIC screening of the peptides against a panel of ATCC and clinical strains was performed using broth microdilution method.^1 Briefly, peptides stock solutions in DMSO (0.1/G TFA) were diluted into Mueller Hinton Broth (MHB), followed by two-fold serial dilution in a 96-well plate. Bacteria culture in mid-log phase was diluted into MHB to yield […] colony-forming units (CFU)/mL. Equal volume of the starting inoculum was added to the peptide samples, then incubated for 18-20 h (37° C., 120 rpm). OD600 of the samples was then measured using Tecan Infinite M200 (TECAN, Männedorf, Switzerland). MIC is defined as the lowest peptide concentration to achieve more than 90% reduction in OD600 relative to the drug-free control. The experiments were repeated three times. Colistin-resistant clinical isolates are a kind gift from Dr. Jeanette Koh (National University Hospital, Singapore). Multidrug-resistant clinical isolates are a kind gift from Dr. Lakshminarayanan Rajamani (Singapore Eye Research Institute, Singapore).
# (§2) Kanamycin and ampicillin were used as antibacterial control agents. […] Then, sequential 2-fold serial dilutions of the mix were diluted in 50 μL MH broth and 50 μL cell cultures were added to wells. […] All assays were carried out in triplicate.
# [2] = test system: Escherichia coli; conditions: for MIC value: Table 15, unit inferred
# Protocol: as §1, §2
# [3] = test system: Staphylococcus aureus
# Protocol: as §1, §2
# [4] = test system: Acinetobacter baumannii; conditions: for MIC value: Table 15, unit inferred
# Protocol: as §1, §2
# [5] = test system: Gram-positive and Gram-negative bacteria; conditions: E. cloacae
# Protocol: as §1, §2
# [6] = test system: Klebsiella pneumoniae; conditions: for MIC value: Table 15, unit inferred
# Protocol: as §1, §2
# [7] = test system: Enterococcus faecalis; assay type: cell-based; conditions: strain not given, Table 14, preliminary screening
# Protocol: MIC values for compounds (1-11) were assessed using 96-well plate format with Mueller Hinton (MH) broth, using the two-fold dilution method, previously reported in standard methods provided by Clinical and Laboratory Standards S8 Institute (CLSI). Kanamycin and ampicillin were used as antibacterial control agents. According to the reference, the compounds (1-11) were first dissolved in DMSO+0.1% TFA at a concentration of 3.2 mg/mL and 4 μL was serially diluted in 96 μL of MH broth. Then, sequential 2-fold serial dilutions of the mix were diluted in 50 μL MH broth and 50 μL cell cultures were added to wells. […] All assays were carried out in triplicate.
# [8] = test system: Pseudomonas aeruginosa; assay type: cell-based; conditions: for MIC value: Table 15, unit inferred
# From the text: (§3) The experiments were repeated three times.
# [9] = test system: Bacillus subtilis; assay type: cell-based; conditions: Bacillus subtilis ATCC 6633
# From the text: as §3
# [10] = test system: Morganella morganii; assay type: cell-based
# From the text: as §3
# [11] = test system: E. coli M6
# Protocol: Female C57BL/6NTac mice aged 6-8 weeks were acquired from InVivos Pte Ltd (Singapore, Singapore). Solutions for injections were prepared fresh in pharmaceutical grade saline and filter-sterilized. Murine peritonitis model was established according to literature. Briefly, healthy mice were rendered neutropenic by administering i.p. injection (0.5 mL) of cyclophosphamide on day −4 (150 mg/kg) and day −1 (100 mg/kg). On day 0, mice were infected with E. coli M6 (10^9 CFU/mL) through i.p. injection (0.1 mL). […] At 2 h post-treatment, mice were humanely euthanized by carbon dioxide asphyxiation and cervical dislocation. Sterile PBS (3 mL) was injected into the peritoneal cavity, followed by abdominal massage and collection of peritoneal fluid (1-2 mL). Blood (0.3-0.5 mL) was collected through cardiac puncture. Liver, spleen, and kidney were surgically removed and stored in 0.1% Triton X-100 (in PBS). Tissue homogenization was performed using gentleMACS dissociator (Miltenyi Biotec, Germany) by following a published protocol. Cell aggregates were removed using a 30 μm mesh MACS SmartStrainer (Miltenyi Biotec). Blood, peritoneal fluid, and tissue homogenates were plated on LB agar and incubated overnight for colony counting.
# [12] = test system: HepG2 human cells
# [13] = test system: E. coli M6; conditions: E. coli M6, over 24 h
# Protocol: Peptides stock solutions were diluted into MHB to desired concentrations. Bacteria culture in mid-log phase was diluted into MHB to yield 10^6 CFU/mL. The mixture was incubated at 37° C. with shaking. At each time point, 10 μL of the sample was drawn out and subjected to ten-fold serial dilution. 20 μL of relevant dilutions was dropped onto MHA plate using the drop plate method. The plate was incubated for 18-20 h at 37° C. Colony number was counted, and used for calculating the CFU/mL according to the equation:
# CFU/mL=Colony count×50×dilution factor
# [14] = test system: Salmonella entereditis; conditions: Salmonella entereditis ATCC 13076
# Protocol: as §1
# [15] = test system: Shigella flexneri; conditions: Shigella flexneri M90T
# Protocol: as §1
# [16] = test system: Bacillus cereus; conditions: Bacillus cereus ATCC 11778
# Protocol: as §1
# [17] = test system: Enterobacteriaceae
# Protocol: as §1
# [18] = test system: Salmonella typhimurium; conditions: Salmonella typhimurium ATCC 14028
# Protocol: as §1
# [19] = test system: E. coli M6; remark: listed apart in the source
# Protocol: Resistance development of E. coli M6 against xenorceptide A2 was assessed by serial passaging of the bacteria in broth containing subinhibitory concentrations of the peptide. In brief, bacteria culture at mid-log phase was diluted to 10^5-10^6 CFU/mL in MHB containing 0.25×, 0.5×, 1×, 2×, and 4×MIC of the peptide. […] A new set of peptide concentration range was added to the cultures based on the latest MIC. This process was repeated over 14 days for three independent starting cultures.
# [20] = Enterobacter cloacae, strain not given, Table 14, preliminary screening
# [21] = Escherichia coli ATCC 25922, Table 14, preliminary screening
# [22] = Staphylococcus aureus ATCC 29737, Table 14, preliminary screening
# [23] = Acinetobacter baumanii ATCC 19606, Table 14, preliminary screening
# [24] = Klebsiella pneumoniae ATC 700603, Table 14, preliminary screening
# [25] = Pseudomonas aeruginosa DR4877/07
# [26] = Pseudomonas aeruginosa DR5790/07
# [27] = Klebsiella pneumoniae ATCC 700603
# [28] = Pseudomonas aeruginosa ATCC 9027
# [29] = Staphylococcus aureus ATCC 29737
# [30] = Acinetobacter baumannii ATCC 19606
# [31] = 50 mg/kg single i.p. dose, 5 h post-treatment, neutropenic mice infected with E. coli M6
# [32] = E. coli M6, sub-inhibitory concentrations, over two weeks
compound,measurement,setting,value
RGEGWVRAYWAKRF [Compound 26],MIC,[1]; [20],>64 µg/mL
same,MIC,[2]; [21],>64 µg/mL
same,MIC,[3]; [22],>64 µg/mL
same,MIC,[4]; [23],>64 µg/mL
same,antibacterial activity,"[5]; panel of E. coli, K. pneumoniae, A. baumannii, E. faecalis and S. aureus, preliminary screening",not active
same,MIC,[6]; [24],>64 µg/mL
same,MIC,[7],>64 µg/mL
"CC(C)[C@@H]1NC(=O)[C@@H](NC(=O)CNC(=O)[C@H](CCC(=O)O)NC(=O)CNC(=O)[C@@H](N)CCCNC(=N)N)Cc2c[nH]c3cc(ccc23)C(CCNC(=N)N)[C@@H](C(=O)N[C@@H](C)C(=O)N[C@@H](Cc2ccc(O)cc2)C(=O)N[C@H]2Cc3c[nH]c4cc(ccc34)C(CCCN)[C@@H](C(=O)N[C@@H](CCCNC(=N)N)C(=O)N[C@@H](Cc3ccccc3)C(=O)O)NC(=O)[C@H](C)NC2=O)NC1=O (stereo partly shown) [Compound 24, xenorceptide D1]",MIC value,[8]; Pseudomonas aeruginosa DM4150R,32 µg/mL
same,MIC value,[8]; Pseudomonas aeruginosa DM23376,16 µg/mL
same,MIC value,[8]; [25],16 µg/mL
same,MIC value,[8]; [26],16 µg/mL
same,MIC value,[1]; Enterobacter cloacae ATCC 13047,4 µg/mL
same,MIC value,[1]; Enterobacter cloacae CRE1010,4 µg/mL
same,MIC value,[1]; Enterobacter cloacae CRE1014,8 µg/mL
same,MIC value,[1]; Enterobacter cloacae CRE1015,8 µg/mL
same,MIC value,[1]; Enterobacter cloacae CRE1016,8 µg/mL
same,MIC value,[1]; Enterobacter cloacae CRE1017,8 µg/mL
same,MIC,[1]; [20],4 µg/mL
same,MIC,[2]; [21],1 µg/mL
same,MIC value,[2]; Escherichia coli M2,4 µg/mL
same,MIC value,[2]; Escherichia coli M6,2 µg/mL
same,MIC value,[2]; Escherichia coli M10,2 µg/mL
same,MIC value,[2]; Escherichia coli M11,2 µg/mL
same,MIC,[3]; [22],>64 µg/mL
same,MIC value,[4]; Acinetobacter baumanii ACβA1001,4 µg/mL
same,MIC value,[4]; Acinetobacter baumanii ACβA1002,4 µg/mL
same,MIC value,[4]; Acinetobacter baumanii ACβA1003,4 µg/mL
same,MIC value,[4]; Acinetobacter baumanii ACβA1004,4 µg/mL
same,MIC,[4]; [23],2 µg/mL
same,MIC value,[4]; Acinetobacter baumanii ATCC 19606,2 µg/mL
same,MIC value range,"[5]; E. coli, A. baumannii and K. pneumoniae",1 to 4 µg/mL
same,MIC value,"[6]; ATCC 25922, printed under Klebsiella pneumoniae",1 µg/mL
same,MIC value,"[6]; CRE1006, Klebsiella pneumoniae",2 µg/mL
same,MIC,[6]; [24],2 µg/mL
same,MIC value,[6]; [27],2 µg/mL
same,MIC value,[6]; Klebsiella pneumoniae CRE 1007,4 µg/mL
same,MIC value,[6]; Klebsiella pneumoniae CRE1008,4 µg/mL
same,MIC value,[6]; Klebsiella pneumoniae CRE1011,2 µg/mL
same,MIC value,[6]; Klebsiella pneumoniae CRE1012,4 µg/mL
same,MIC,[7],64 µg/mL
CC[C@H](C)[C@H](NC(=O)[C@H](CCCNC(=N)N)NC(=O)[C@H]1NC(=O)[C@H]([C@@H](C)O)NC(=O)[C@@H](NC(=O)[C@H]2NC(=O)[C@H](C)NC(=O)[C@@H](NC(=O)[C@H](C)NC(=O)[C@H]3NC(=O)[C@H]([C@@H](C)CC)NC(=O)[C@@H](N)Cc4c[nH]c5cc(ccc45)[C@@H]3C(N)=O)Cc3ccc(cc3)[C@@H]2C(N)=O)Cc2c[nH]c3cc(ccc23)[C@@H]1CCCN)C(=O)O [xenorceptide A3],MIC,[8]; [28],64 µg/mL
same,MIC,[9],>64 µg/mL
same,MIC,[10]; Morganella morganii ATCC 25830,64 µg/mL
same,MIC,[2]; Escherichia coli ATCC 25922,8 µg/mL
same,MIC (E. coli),"[2]; strain not stated, product produced and tested against E. coli",8 µg/mL
same,MIC,[3]; [29],>64 µg/mL
same,MIC,[4]; [30],>64 µg/mL
same,MIC,[6]; [27],8 µg/mL
CC(C)[C@@H]1NC(=O)[C@@H](N)Cc2c[nH]c3cc(ccc23)[C@H](C(N)=O)[C@@H](C(=O)N[C@@H](C)C(=O)N[C@H]2Cc3cccc(c3)[C@H](CCNC(=N)N)[C@@H](C(=O)N[C@H]3Cc4c[nH]c5cc(ccc45)[C@H](CCCN)[C@@H](C(=O)N[C@@H](CO)C(=O)N[C@@H](Cc4ccccc4)C(=O)O)NC(=O)[C@H](CO)NC3=O)NC(=O)[C@H](C)NC2=O)NC1=O [xenorceptide A2],"decrease in colony count relative to saline control, blood",[11]; [31],7 log
same,"decrease in colony count relative to saline control, liver",[11]; [31],4 log
same,"decrease in colony count relative to saline control, peritoneal fluid",[11]; [31],6 log
same,"reduction in bacteria burden, kidney",[11]; [31],2 log
same,"reduction in bacteria burden, spleen",[11]; [31],2 log
same,in vivo efficacy compared with colistin,"[11]; both at 5 mg/kg, single i.p. dose",comparable efficacy to colistin
same,MIC,[8]; [28],64 µg/mL
same,MIC,[8]; Pseudomonas aeruginosa DM4150R,64 µg/mL
same,MIC,[8]; Pseudomonas aeruginosa DM23376,>64 µg/mL
same,MIC,[8]; [25],64 µg/mL
same,MIC,[8]; [26],64 µg/mL
same,MIC,[9],>64 µg/mL
same,MIC,[10]; Morganella morganii ATCC 25830,32 µg/mL
same,MIC,[10]; Morganella morganii CRE1001,32 µg/mL
same,cytotoxicity: concentration up to which no cytotoxicity was shown,[12],> 256 µg/mL
same,bactericidal effect: reduction in bacteria count,[13]; at 8×MIC,3 log
same,bactericidal effect: reduction in bacteria count,[13]; at both 4× and 8×MIC,3 log
same,MIC,[14],8 µg/mL
same,MIC,[15],2 µg/mL
same,MIC,[16],>64 µg/mL
same,potency compared with dynobactin and darobactin,[17]; against Enterobactericeae,more potent than dynobactin and has comparable potency to darobactin
same,MIC values,[17]; several carbapenamase-resistant Enterobacteriaceae (CRE),4 to 8 µg/mL
same,MIC,[18],8 µg/mL
same,level at which resistance development halted,[19]; E. coli,4 ×MIC
same,period over which resistance development occurred,[19]; E. coli,6 to 8 days
same,MIC of strains obtained by serial passage,[19]; [32],32 µg/mL
same,resistance of strains obtained by serial passage,[19]; [32],~4 fold
same,MIC,[1]; Enterobacter cloacae CRE1010,4 µg/mL
same,MIC,[1]; Enterobacter cloacae CRE1014,16 µg/mL
same,MIC,[1]; Enterobacter cloacae CRE1015,32 µg/mL
same,MIC,[1]; Enterobacter cloacae CRE1016,16 µg/mL
same,MIC,[1]; Enterobacter cloacae CRE1017,32 µg/mL
same,MIC,[2]; Escherichia coli ATCC 25922,4 µg/mL
same,MIC,"[2]; Escherichia coli CRE1006, carbapenem-resistant clinical isolate",4 µg/mL
same,MIC,"[2]; Escherichia coli M6, carbapenem- and colistin-resistant clinical isolate",8 µg/mL
same,MIC,"[2]; Escherichia coli M10, carbapenem- and colistin-resistant clinical isolate",4 µg/mL
same,MIC,"[2]; Escherichia coli M11, carbapenem- and colistin-resistant clinical isolate",4 µg/mL
same,MIC,[3]; [29],>64 µg/mL
same,MIC,[3]; Staphylococcus aureus ATCC 43300,>64 µg/mL
same,MIC,[4]; Acinetobacter baumannii ACBA1001,32 µg/mL
same,MIC,[4]; Acinetobacter baumannii ACBA1002,32 µg/mL
same,MIC,[4]; Acinetobacter baumannii ACBA1003,32 µg/mL
same,MIC,[4]; Acinetobacter baumannii ACBA1004,64 µg/mL
same,MIC,[4]; [30],>64 µg/mL
same,MIC,[6]; [27],8 µg/mL
same,MIC,[6]; Klebsiella pneumoniae CRE 1007,8 µg/mL
same,MIC,[6]; Klebsiella pneumoniae CRE1008,8 µg/mL
same,MIC,[6]; Klebsiella pneumoniae CRE1011,8 µg/mL
same,MIC,[6]; Klebsiella pneumoniae CRE1012,8 µg/mL
